ChEMBL document CHEMBL1129087, “Novel phosphotyrosine mimetics in the design of peptide ligands for pp60src SH2 domain” (Bioorg Med Chem Lett, 1996)
pIC50: −log10 of the molar value. Each block holds one compound with its values, some of them ahead of it.

Columns and labels:
[1] = target: T1, Proto-oncogene tyrosine-protein kinase Src (Homo sapiens, UniProt P12931); assay: Binding affinity to p60 src SH2 domain.
[2] = target: Growth factor receptor-bound protein 2 (Homo sapiens) (UniProt P62993); assay: Inhibition of Grb2 SH2 domain binding to PDGF receptor
[3] = target: Tyrosine-protein kinase ABL1 (Homo sapiens, UniProt P00519); assay: Inhibition of Abl SH2 domain binding PDGF receptor
Tyrosine-protein kinase ABL1, sequence (P00519 whole entry, the tested form may be a part): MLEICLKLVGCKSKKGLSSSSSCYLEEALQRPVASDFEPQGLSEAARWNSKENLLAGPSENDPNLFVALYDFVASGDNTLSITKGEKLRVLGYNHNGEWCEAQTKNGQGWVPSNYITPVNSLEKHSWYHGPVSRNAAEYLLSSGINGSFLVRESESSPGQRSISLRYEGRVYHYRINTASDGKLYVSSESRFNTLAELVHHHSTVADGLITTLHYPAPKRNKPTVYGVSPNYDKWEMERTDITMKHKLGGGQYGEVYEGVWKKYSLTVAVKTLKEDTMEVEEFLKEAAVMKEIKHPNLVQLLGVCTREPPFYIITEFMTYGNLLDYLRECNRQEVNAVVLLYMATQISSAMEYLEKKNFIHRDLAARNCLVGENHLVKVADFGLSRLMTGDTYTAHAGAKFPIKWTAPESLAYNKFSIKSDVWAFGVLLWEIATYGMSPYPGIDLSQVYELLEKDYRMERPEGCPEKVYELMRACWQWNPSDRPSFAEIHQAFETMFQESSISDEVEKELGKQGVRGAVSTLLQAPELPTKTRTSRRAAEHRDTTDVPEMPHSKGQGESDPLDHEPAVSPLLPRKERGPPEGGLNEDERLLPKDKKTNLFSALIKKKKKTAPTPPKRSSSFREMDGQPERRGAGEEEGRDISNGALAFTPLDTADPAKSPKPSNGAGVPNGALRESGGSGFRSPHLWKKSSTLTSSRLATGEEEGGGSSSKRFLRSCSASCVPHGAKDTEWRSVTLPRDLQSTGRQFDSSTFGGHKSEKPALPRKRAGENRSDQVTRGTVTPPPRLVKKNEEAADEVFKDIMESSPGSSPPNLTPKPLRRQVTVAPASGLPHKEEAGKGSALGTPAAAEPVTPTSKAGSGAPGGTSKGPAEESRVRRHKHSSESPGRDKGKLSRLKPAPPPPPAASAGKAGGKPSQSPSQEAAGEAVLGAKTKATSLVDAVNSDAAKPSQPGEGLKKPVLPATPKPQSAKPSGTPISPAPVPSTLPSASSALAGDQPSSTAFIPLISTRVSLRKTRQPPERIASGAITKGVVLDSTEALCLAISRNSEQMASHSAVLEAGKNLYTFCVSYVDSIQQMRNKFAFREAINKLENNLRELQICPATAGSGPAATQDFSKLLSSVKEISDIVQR

[4] = target: T1, Proto-oncogene tyrosine-protein kinase Src; assay: Inhibition of src SH2 domain binding to PDGF receptor
[5] = Inhibition of PLC(C) SH2 domain binding to PDGF receptor
[6] = target: T2, Tyrosine-protein phosphatase non-receptor type 11 (Homo sapiens, UniProt Q06124); assay: Inhibition of Syp(N) SH2 domain block binding to PDGF receptor
T2 sequence (Q06124 whole entry): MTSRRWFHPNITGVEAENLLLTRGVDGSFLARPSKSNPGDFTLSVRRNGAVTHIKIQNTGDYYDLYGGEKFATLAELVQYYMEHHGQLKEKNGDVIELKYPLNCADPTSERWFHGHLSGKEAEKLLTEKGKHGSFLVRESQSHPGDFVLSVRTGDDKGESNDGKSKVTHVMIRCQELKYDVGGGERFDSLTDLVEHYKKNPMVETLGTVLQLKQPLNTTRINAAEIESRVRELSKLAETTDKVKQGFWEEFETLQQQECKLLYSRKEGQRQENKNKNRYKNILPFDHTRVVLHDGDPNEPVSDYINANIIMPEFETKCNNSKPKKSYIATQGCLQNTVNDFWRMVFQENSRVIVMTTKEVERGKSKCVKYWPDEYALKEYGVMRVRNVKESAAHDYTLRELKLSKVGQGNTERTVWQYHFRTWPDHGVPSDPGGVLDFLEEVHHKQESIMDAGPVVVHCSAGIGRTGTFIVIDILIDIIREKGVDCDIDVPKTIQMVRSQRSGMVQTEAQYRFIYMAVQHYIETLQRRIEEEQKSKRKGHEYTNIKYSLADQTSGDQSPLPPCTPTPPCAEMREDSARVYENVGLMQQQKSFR

[7] = target: Growth factor receptor-bound protein 2 (Homo sapiens) (UniProt P62993); assay: Inhibition of Grb2 SH2 domain binding to PDGF receptor 100 uM

T1 sequence (P12931 2-536 limits assumed): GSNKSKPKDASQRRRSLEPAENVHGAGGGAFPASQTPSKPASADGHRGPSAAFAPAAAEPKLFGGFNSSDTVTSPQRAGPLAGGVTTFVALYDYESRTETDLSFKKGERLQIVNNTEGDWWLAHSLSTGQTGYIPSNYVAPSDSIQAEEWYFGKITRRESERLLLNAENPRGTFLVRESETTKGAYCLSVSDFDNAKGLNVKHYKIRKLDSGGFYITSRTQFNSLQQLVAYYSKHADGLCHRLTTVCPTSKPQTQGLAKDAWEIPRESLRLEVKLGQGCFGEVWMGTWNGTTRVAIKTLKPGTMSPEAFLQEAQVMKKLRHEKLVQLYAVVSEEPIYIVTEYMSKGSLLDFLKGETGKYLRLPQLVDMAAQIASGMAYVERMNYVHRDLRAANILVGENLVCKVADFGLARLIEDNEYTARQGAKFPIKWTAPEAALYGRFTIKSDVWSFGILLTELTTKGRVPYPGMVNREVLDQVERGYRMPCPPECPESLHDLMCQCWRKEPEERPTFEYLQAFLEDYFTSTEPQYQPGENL

SMILES: CC[C@H](C)[C@H](NC(=O)[C@H](CCC(=O)O)NC(=O)[C@H](CCC(=O)O)NC(=O)C(Cc1ccc(OP(=O)(O)O)cc1)c1ccccc1)C(=O)N[C@@H](CCC(=O)O)C(=O)O (stereo in doubt) [listing 1 of 2 here]
IC50 [2]: > 100 µM

SMILES: CC[C@H](C)[C@H](NC(=O)[C@H](CCC(=O)O)NC(=O)[C@H](CCC(=O)O)NC(=O)/C(=C/c1ccc(OP(=O)(O)O)cc1)C(=O)O)C(=O)N[C@@H](CCC(=O)O)C(=O)O
pIC50 [1]: 5.30

SMILES: CC[C@H](C)[C@H](NC(=O)[C@H](CCC(=O)O)NC(=O)[C@H](CCC(=O)O)NC(=O)C(Cc1ccc(OP(=O)(O)O)cc1)c1cccc2ccccc12)C(=O)N[C@@H](CCC(=O)O)C(=O)O (stereo in doubt; form 1)
pIC50 [1]: 5.14

SMILES: C[C@H](Cc1ccc(OP(=O)(O)O)cc1)C(=O)NC(CCC(=O)O)C(=O)N[C@@H](Cc1c[nH]c2ccccc12)C(N)=O (some centres not stated)
pIC50 [1]: 4.87

SMILES: NC(=O)[C@H](Cc1c[nH]c2ccccc12)NC(=O)C(CCC(=O)O)NC(=O)/C=C/c1ccc(OP(=O)(O)O)cc1 (some centres not stated)
pIC50 [1]: 4.52

SMILES: CC[C@H](C)[C@H](NC(=O)[C@H](CCC(=O)O)NC(=O)[C@H](CCC(=O)O)NC(=O)[C@@H](Cc1ccc(OP(=O)(O)O)cc1)NC(C)=O)C(=O)N[C@@H](CCC(=O)O)C(=O)O
inhibition [7]: 45.2% | pIC50 [3]: 4.82 | pIC50 [5]: < 4.00 | pIC50 [6]: < 4.00

SMILES: CC[C@H](C)[C@H](NC(=O)[C@H](CCC(=O)O)NC(=O)[C@H](CCC(=O)O)NC(=O)/C=C/c1ccc(OP(=O)(O)O)cc1)C(=O)N[C@@H](CCC(=O)O)C(=O)O
pIC50 [1]: 5.26

SMILES: NC(=O)[C@H](Cc1c[nH]c2ccccc12)NC(=O)C(CCC(=O)O)NC(=O)C(Cc1ccc(OP(=O)(O)O)cc1)c1cccc2ccccc12 (some centres not stated)
pIC50 [1]: 4.52

SMILES: Cc1cc(OP(=O)(O)O)cc(C)c1CCC(=O)NC(CCC(=O)O)C(=O)N[C@@H](Cc1c[nH]c2ccccc12)C(N)=O (some centres not stated)
pIC50 [1]: 4.52

SMILES: CC[C@H](C)[C@H](NC(=O)[C@H](CCC(=O)O)NC(=O)[C@H](CCC(=O)O)NC(=O)[C@H](C)Cc1ccc(OP(=O)(O)O)cc1)C(=O)N[C@@H](CCC(=O)O)C(=O)O
pIC50 [1]: 4.70

SMILES: NC(=O)[C@H](Cc1c[nH]c2ccccc12)NC(=O)C(CCC(=O)O)NC(=O)C(Cc1ccc(OP(=O)(O)O)cc1)c1ccccc1 (some centres not stated)
pIC50 [1]: 4.55

SMILES: NC(=O)[C@H](Cc1c[nH]c2ccccc12)NC(=O)C(CCC(=O)O)NC(=O)C(Cc1ccc(OP(=O)(O)O)cc1)c1ccc2ccccc2c1 (some centres not stated)
pIC50 [1]: 4.40

SMILES: NC(=O)[C@H](Cc1c[nH]c2ccccc12)NC(=O)C(CCC(=O)O)NC(=O)CCc1ccc(OP(=O)(O)O)cc1 (some centres not stated)
pIC50 [1]: 4.67

SMILES: CC[C@H](C)[C@H](NC(=O)[C@H](CCC(=O)O)NC(=O)[C@H](CCC(=O)O)NC(=O)C(Cc1ccc(OP(=O)(O)O)cc1)c1ccccc1)C(=O)N[C@@H](CCC(=O)O)C(=O)O (single isomer, unassigned; isomer 2)
pIC50 [1]: 5.03

More lines, in order of rising pIC50 [1], values ahead:

pIC50 [1]: 5.35
SMILES: CC[C@H](C)[C@H](NC(=O)[C@H](CCC(=O)O)NC(=O)[C@H](CCC(=O)O)NC(=O)CCc1c(C)cc(OP(=O)(O)O)cc1C)C(=O)N[C@@H](CCC(=O)O)C(=O)O

pIC50 [1]: 5.35
SMILES: CC[C@H](C)[C@H](NC(=O)[C@H](CCC(=O)O)NC(=O)[C@H](CCC(=O)O)NC(=O)C(Cc1ccc(OP(=O)(O)O)cc1)c1ccc2ccccc2c1)C(=O)N[C@@H](CCC(=O)O)C(=O)O (single isomer, unassigned; isomer 2)

pIC50 [1]: 5.40
SMILES: CC(=O)N[C@@H](Cc1ccc(OP(=O)(O)O)cc1)C(=O)NC(CCC(=O)O)C(=O)N[C@@H](Cc1c[nH]c2ccccc12)C(N)=O (some centres not stated)

pIC50 [1]: 5.47
SMILES: CC[C@H](C)[C@H](NC(=O)[C@H](CCC(=O)O)NC(=O)[C@H](CCC(=O)O)NC(=O)CCc1ccc(OP(=O)(O)O)cc1)C(=O)N[C@@H](CCC(=O)O)C(=O)O

pIC50 [1]: 5.48
SMILES: CC[C@H](C)[C@H](NC(=O)C(CCC(=O)O)NC(=O)C(CCC(=O)O)NC(=O)C(Cc1ccc(OP(=O)(O)O)cc1)c1cccc(O)c1)C(=O)N[C@@H](CCC(=O)O)C(=O)O (stereo in doubt)

pIC50 [1]: 5.55
SMILES: CC[C@H](C)[C@H](NC(=O)[C@H](CCC(=O)O)NC(=O)[C@H](CCC(=O)O)NC(=O)C(Cc1ccc(OP(=O)(O)O)cc1)c1ccc2ccccc2c1)C(=O)N[C@@H](CCC(=O)O)C(=O)O (stereo in doubt)

pIC50 [1]: 5.59
SMILES: CC[C@H](C)[C@H](NC(=O)[C@H](CCC(=O)O)NC(=O)[C@H](CCC(=O)O)NC(=O)C(Cc1ccc(OP(=O)(O)O)cc1)c1cccc2ccccc12)C(=O)N[C@@H](CCC(=O)O)C(=O)O (stereo in doubt; form 2)

pIC50 [1]: 5.68
SMILES: CC[C@H](C)[C@H](NC(=O)C(CCC(=O)O)NC(=O)C(CCC(=O)O)NC(=O)C(Cc1ccc(OP(=O)(O)O)cc1)c1cccc(O)c1)C(=O)N[C@@H](CCC(=O)O)C(=O)O (single isomer, unassigned; isomer 1)

pIC50 [3]: < 4.00 | pIC50 [4]: 5.13 | pIC50 [5]: < 4.00 | pIC50 [6]: < 4.00 | pIC50 [1]: 5.72
SMILES: CC[C@H](C)[C@H](NC(=O)[C@H](CCC(=O)O)NC(=O)[C@H](CCC(=O)O)NC(=O)C(Cc1ccc(OP(=O)(O)O)cc1)c1ccccc1)C(=O)N[C@@H](CCC(=O)O)C(=O)O (stereo in doubt) [listing 2 of 2 here]

pIC50 [1]: 5.85
SMILES: CC[C@H](C)[C@H](NC(=O)[C@H](CCC(=O)O)NC(=O)[C@H](CCC(=O)O)NC(=O)C(Cc1ccc(OP(=O)(O)O)cc1)c1ccccc1O)C(=O)N[C@@H](CCC(=O)O)C(=O)O (some centres not stated)

pIC50 [1]: 6.46
SMILES: CC[C@H](C)[C@H](NC(=O)[C@H](CCC(=O)O)NC(=O)[C@H](CCC(=O)O)NC(=O)[C@@H](CC(=O)O)Cc1ccc(OP(=O)(O)O)cc1)C(=O)N[C@@H](CCC(=O)O)C(=O)O
